{
  "source": "patent US20210300921A1",
  "about": "“EP4 INHIBITORS AND SYNTHESIS THEREOF” (Arrys Therapeutics, Inc., priority 2018, published 2021)",
  "type_in_all_cases": "in vivo, BALB/c mice",
  "key": {"[1]": {"system": "CT-26 mouse colon adenocarcinoma model", "experiment": "Antitumor activity in the CT-26 mouse colon adenocarcinoma model, Compound X with or without anti-PD-1 (10 mice per cohort)", "conditions": "for tumor growth kinetics during the treatment period: versus single agent anti-PD-1; for tumor growth kinetics during the period of dosing: versus vehicle", "procedure": "(§1) The antitumor activity of Compound X as a single agent and combined with a mouse anti-PD-1 antibody was evaluated in the CT-26 mouse colon adenocarcinoma model grown in BALB/c mice. Mice were inoculated subcutaneously in the right flank with 5×10^5 tumor cells. When tumors reached an average size of 71 mm^3 (6 days after tumor cell inoculation) dosing was initiated. The dosing regimens in the 8 separate cohorts comprising 10 mice each are as follows: […]"}, "[2]": {"system": "CT-26 mouse colon adenocarcinoma model", "experiment": "Antitumor activity in the CT-26 mouse colon adenocarcinoma model, additional experiment (7 mice per cohort)", "conditions": "FIG. 5", "procedure": "as §1, with “mouse anti-PD1” for “mouse anti-PD-1”, “BALB/c mice in an additional experiment.” for “BALB/c mice.”, “of 91” for “of 71”, “mm^3” for “mm^3 (6 days after tumor cell inoculation)”, “the 4” for “the 8”, “comprising 7” for “comprising 10”"}, "[3]": {"system": "4T1 mouse breast cancer model", "experiment": "Antitumor activity in the 4T1 mouse breast cancer model, Compound X with or without anti-CTLA4", "conditions": "for tumor growth kinetics during the period of dosing: FIG. 3", "procedure": "The antitumor activity of Compound X (the compound as described in Example 15, above) as a single agent and combined with a mouse anti-CTLA4 antibody was evaluated in the 4T1 mouse breast cancer model grown in BALB/c mice. Mice were inoculated subcutaneously in the right flank with 3×10^5 tumor cells. When tumors reached an average size of 100 mm^3 (7 days after tumor cell inoculation) dosing was initiated."}, "[4]": {"system": "4T1 mouse breast cancer model", "experiment": "Antitumor activity in the 4T1 mouse breast cancer model, additional experiment with anti-PD1 (7 mice per cohort)", "conditions": "FIG. 6", "procedure": "The antitumor activity of Compound X as a single agent and combined with a mouse anti-PD1 antibody was evaluated in the 4T1 mouse breast cancer model grown in BALB/c mice in an additional experiment. Mice were inoculated subcutaneously in the right flank with 3×10^5 tumor cells. When tumors reached an average size of 97 mm^3 dosing was initiated. The dosing regimens in the 4 separate cohorts comprising 7 mice each are as follows: […]"}, "[5]": {"system": "CT-26 tumors", "experiment": "Immune cell composition of CT-26 tumors by flow cytometry after 7 days of dosing", "conditions": "for percentage of dendritic cells (CD45, CD11c positive) in tumors: FIG. 7b; for regulatory T cells (CD45, CD4, FoxP3, CD25 positive) in tumors: versus vehicle, FIG. 7a; for percentage of activated T cells (CD45, CD3, CD8) by CD25 expression in tumors: FIG. 7c", "procedure": "The immune cell composition of Compound X (the compound as described in Example 15, above) as a single agent and combined with a mouse anti-PD1 antibody was evaluated in the CT-26 mouse colon adenocarcinoma model grown in BALB/c mice. Mice were inoculated subcutaneously in the right flank with 5×10^5 tumor cells. When tumors reached an average size of 85 mm^3 dosing was initiated. The dosing regimens in the 4 separate cohorts comprising 10 mice each are listed as follows:\nAfter dosing animals for 7 days, tumors were resected and used to prepare single cell suspensions. Live cells representing tumor and immune cells were stained with cocktails of antibodies targeting multiple immune cell markers (anti-CD45, anti-CD3, anti-CD4, anti-CD8, anti-CD25, anti-FoxP3, anti-PD-1, anti-CD11c) conjugated to different fluorescent tags. The stained cells were fixed in 4% paraformaldehyde and quantified using a multi-color flow cytometer (Fortessa). The data was analyzed with FloJo software."}, "[6]": {"conditions": "Compound X 15 mg/kg BID in combination with anti-CTLA4"}, "[7]": {"conditions": "single agent: Compound X 15 mg/kg BID x7 days po or anti-PD-1 10 mg/kg Q3D x3 ip"}},
  "data": [
    {"molecule": "C[C@H](NC(=O)c1cc(Cl)cnc1Oc1cccc(F)c1)c1ccc(C(=O)O)cc1", "note": "[Compound X]", "values": [
      {"measurement": "mice still alive 99 days after tumor inoculation", "setting": "[1]; Compound X 15 mg/kg BID in combination with anti-PD-1", "value": "5 out of 10"},
      {"measurement": "growth kinetics after treatment was discontinued", "setting": "[1]; Compound X 15 mg/kg BID in combination with anti-PD-1, FIG. 1", "value": "decreased growth kinetics relative to anti-PD-1"},
      {"measurement": "survival after treatment was discontinued", "setting": "[1]; Compound X 15 mg/kg BID in combination with anti-PD-1, FIG. 2", "value": "improved survival"},
      {"measurement": "tumor free mice 99 days after tumor inoculation", "setting": "[1]; Compound X 15 mg/kg BID in combination with anti-PD-1, of 10 mice", "value": 4},
      {"measurement": "tumor growth kinetics during the treatment period", "setting": "[1]; Compound X 15 mg/kg BID p.o. combined with anti-PD-1 10 mg/kg i.p.", "value": "not notably different mice treated with single agent anti-PD-1"},
      {"measurement": "tumor growth kinetics during the period of dosing", "setting": "[1]; Compound X 15 mg/kg BID p.o., single agent, FIG. 1", "value": "not notably different from the vehicle treated mice"},
      {"measurement": "tumor growth kinetics during the treatment period", "setting": "[1]; Compound X 15 mg/kg QD p.o. combined with anti-PD-1 10 mg/kg i.p.", "value": "not notably different mice treated with single agent anti-PD-1"},
      {"measurement": "tumor growth kinetics during the period of dosing", "setting": "[1]; Compound X 15 mg/kg QD p.o., single agent, FIG. 1", "value": "not notably different from the vehicle treated mice"},
      {"measurement": "mice still alive and tumor free 99 days after tumor inoculation", "setting": "[1]; single agent", "value": "1 out of 10"},
      {"measurement": "tumor growth kinetics during the period of dosing", "setting": "[2]; Compound X 15 mg/kg BID combined with anti-PD1 10 mg/kg BIW ip, versus single agents", "value": "lower than mice treated with either single agent"},
      {"measurement": "tumor growth kinetics during the period of dosing", "setting": "[2]; single agent: Compound X 15 mg/kg BID po or anti-PD1 10 mg/kg BIW ip, versus vehicle", "value": "less than that of the vehicle group"},
      {"measurement": "mice still alive 47 days after tumor inoculation", "setting": "[3]; [6]", "value": "7 of 10"},
      {"measurement": "mice still alive at the end of the study 55 days after tumor inoculation", "setting": "[3]; [6]", "value": "3 of 10"},
      {"measurement": "survival rate after treatment was discontinued", "setting": "[3]; Compound X 15 mg/kg BID in combination with anti-CTLA4, FIG. 4", "value": "improved survival rate relative to either single agent alone"},
      {"measurement": "tumor growth kinetics during the period of dosing", "setting": "[3]; Compound X and anti-CTLA4 combined, versus either agent alone", "value": "decreased relative to either agent when dosed alone"},
      {"measurement": "mice alive 47 days after tumor inoculation", "setting": "[3]; single agent alone", "value": "none"},
      {"measurement": "tumor growth kinetics during the period of dosing", "setting": "[3]; single agent: Compound X 15 mg/kg BID or anti-CTLA4, versus vehicle", "value": "decreased relative to the vehicle treated mice"},
      {"measurement": "tumor growth kinetics during the period of dosing", "setting": "[4]; Compound X 15 mg/kg BID combined with anti-PD1 10 mg/kg BIW ip", "value": "lower than mice treated with either single agent"},
      {"measurement": "tumor growth kinetics during the period of dosing", "setting": "[4]; Compound X 15 mg/kg BID po, single agent", "value": "less than that of the vehicle group and anti-PD1 when dosed alone"},
      {"measurement": "percentage of dendritic cells (CD45, CD11c positive) in tumors", "setting": "[5]; Compound X 15 mg/kg BID dosed with anti-PD-1 10 mg/kg Q3D", "value": "increased percentage"},
      {"measurement": "regulatory T cells (CD45, CD4, FoxP3, CD25 positive) in tumors", "setting": "[5]; combination of Compound X 15 mg/kg BID and anti-PD-1 10 mg/kg Q3D", "value": "significant decrease"},
      {"measurement": "percentage of activated T cells (CD45, CD3, CD8) by CD25 expression in tumors", "setting": "[5]; combination of Compound X 15 mg/kg BID with anti-PD-1 10 mg/kg Q3D", "value": "increased percentage"},
      {"measurement": "percentage of activated T cells (CD45, CD3, CD8) by CD25 expression in tumors", "setting": "[5]; either agent dosed alone", "value": "did not"},
      {"measurement": "percentage of dendritic cells (CD45, CD11c positive) in tumors", "setting": "[5]; [7]", "value": "increased percentage"},
      {"measurement": "regulatory T cells (CD45, CD4, FoxP3, CD25 positive) in tumors", "setting": "[5]; [7]", "value": "significant decrease"}
    ]}
  ]
}
